Experimental findings from PubChem BioAssay (NCI) are described below.

Structures are written as SMILES.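 Following 48 hours of exposure in 96-well plates, responses at five concentrations were used to interpolate endpoints linearly. The concentration for full growth arrest is given as TGI.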 Where a SMILES comes first, the peptide text is derived from it. [ ]: non-standard residue; d: D form. The star is where a group is joined. ξ: configuration not given here. ξF = NC(Cc1ccccc1)C(=O)O; Cbz = O=C(OCc1ccccc1)*

For the first assay, the system named is KM12 colon. Briefly: growth of human tumour cells (NCI), 48 h.
`Cc1cc2nc3c(C#N)c(-c4ccccc4)/c(=C\Nc4ccc(F)cc4)c(=O)n3c2cc1C` yielded a TGI above 100 µM.

For the next assay, the system named is M14 melanoma. Briefly: growth of human tumour cells (NCI), 48 h.
In turn, `Clc1ccc(C=Nc2ccc(Oc3ccc(Cl)cc3)c(Cl)c2)cc1` registered a TGI of 46.9 µM.
As to `CCN(/C=C1/C(=O)C(c2ccccc2)N(c2ccccc2)C1=O)CC` (configuration not stated), the TGI is above 10 µM.
On the same count and under the same terms, as for `C[C@H]1CC[C@@]2(OC1)O[C@H]1C[C@H]3[C@@H]4CC[C@@H]5C[C@@H](OC6OC(CO)C(O)C(O)C6OC6OC(CO)C(O)C(O)C6O)CC[C@]5(C)[C@H]4CC[C@]3(C)[C@H]1[C@@H]2C` (some centres not stated), the figure is 3.75 µM; as for `CSc1nncc(-c2cc3c(c(SC)n2)CCCC3)n1`, above 100 µM.
Same read-out and setting: as for `Cn1c2ccccc2c(=O)c2c(O)cc3c(c21)C1OCC(C)(O)C1O3` (configuration not stated), the figure is above 100 µM; as for `Cc1cc(N(CCC#N)CCC#N)ccc1/C(N=Nc1ccccc1)=N\NC(=O)c1cc(Cl)ccc1O`, above 100 µM; as for `Cn1c(CNc2ccc(-c3n[nH]c(=S)n3C)cc2)n[nH]c1=S`, above 100 µM.
Same read-out and setting: as for `Cc1ccc(N=N/C(=N/NC(=O)c2ccccc2)c2ccc(N(CCC#N)CCC#N)cc2C)cc1`, the figure is above 100 µM.
`CC(N)(CC(O)(C(F)(F)Cl)C(F)(F)Cl)C(=O)O` (configuration not stated) had a TGI above 10 µM.
Same read-out and setting: as for `COC(CN(C)C(=S)Nc1cccc2ccccc12)OC`, the figure is above 10 µM.
Still for that read-out and setting: as for `CCN1CCC(O)(c2ccc([N+](=O)[O-])cc2)C(C(=O)c2ccc([N+](=O)[O-])cc2)C1` (configuration not stated), the figure is 42.1 µM.
Same read-out and setting: as for `CCOC(=O)CNC(=O)C(Cc1ccccc1)NC(=O)OCc1ccccc1` (configuration not stated) (Cbz-[ξF]-Gly-OEt), the figure is above 100 µM; as for `CCOC(=O)C1(C/C=C\CBr)CCCC1=O` (configuration not stated), 75.1 µM; as for `Cc1[nH]n(-c2nc3c(c(=O)[nH]2)CCCC3)c(=O)c1CCO`, above 100 µM.
`Cc1cc2nc3c(C#N)c(-c4ccccc4)/c(=C\Nc4ccc(F)cc4)c(=O)n3c2cc1C`: the TGI is above 100 µM.

A further assay relates to NCI-H460 lung. Briefly: growth of human tumour cells (NCI), 48 h.
On to `Clc1ccc(C=Nc2ccc(Oc3ccc(Cl)cc3)c(Cl)c2)cc1`, for which the TGI stood at 44.5 µM.
Still for that read-out and setting: as for `CCN(/C=C1/C(=O)C(c2ccccc2)N(c2ccccc2)C1=O)CC` (configuration not stated), the figure is above 10 µM; as for `CSc1nncc(-c2cc3c(c(SC)n2)CCCC3)n1`, above 100 µM.
Consider `Cc1cc(N(CCC#N)CCC#N)ccc1/C(N=Nc1ccccc1)=N\NC(=O)c1cc(Cl)ccc1O`, for which the TGI was 57.5 µM.
In turn, `Cn1c(CNc2ccc(-c3n[nH]c(=S)n3C)cc2)n[nH]c1=S` came in with a TGI above 100 µM.
Same read-out and setting: as for `Cc1ccc(N=N/C(=N/NC(=O)c2ccccc2)c2ccc(N(CCC#N)CCC#N)cc2C)cc1`, the figure is above 100 µM.
Still for that read-out and setting: as for `CC(N)(CC(O)(C(F)(F)Cl)C(F)(F)Cl)C(=O)O` (configuration not stated), the figure is above 10 µM; as for `COC(CN(C)C(=S)Nc1cccc2ccccc12)OC`, above 10 µM; as for `CCN1CCC(O)(c2ccc([N+](=O)[O-])cc2)C(C(=O)c2ccc([N+](=O)[O-])cc2)C1` (configuration not stated), 48.7 µM.
The same measure, in the same setting: as for `CCOC(=O)CNC(=O)C(Cc1ccccc1)NC(=O)OCc1ccccc1` (configuration not stated) (Cbz-[ξF]-Gly-OEt), the figure is above 100 µM; as for `Cc1[nH]n(-c2nc3c(c(=O)[nH]2)CCCC3)c(=O)c1CCO`, above 100 µM; as for `Cc1cc2nc3c(C#N)c(-c4ccccc4)/c(=C\Nc4ccc(F)cc4)c(=O)n3c2cc1C`, above 100 µM.

Another assay deals with RXF 393 renal. Briefly: growth of human tumour cells (NCI), 48 h.
With `CCN(/C=C1/C(=O)C(c2ccccc2)N(c2ccccc2)C1=O)CC` (configuration not stated), the TGI is above 10 µM.
Same read-out and setting: as for `CSc1nncc(-c2cc3c(c(SC)n2)CCCC3)n1`, the figure is above 100 µM.
With `Cn1c2ccccc2c(=O)c2c(O)cc3c(c21)C1OCC(C)(O)C1O3` (configuration not stated), the TGI is 69 µM.
Consider `Cc1cc(N(CCC#N)CCC#N)ccc1/C(N=Nc1ccccc1)=N\NC(=O)c1cc(Cl)ccc1O`, for which the TGI stood at 70.2 µM.
Consider `Cc1ccc(N=N/C(=N/NC(=O)c2ccccc2)c2ccc(N(CCC#N)CCC#N)cc2C)cc1`, for which the TGI was above 100 µM.
On the same count and under the same terms, as for `COC(CN(C)C(=S)Nc1cccc2ccccc12)OC`, the figure is above 10 µM.
On to `CCN1CCC(O)(c2ccc([N+](=O)[O-])cc2)C(C(=O)c2ccc([N+](=O)[O-])cc2)C1` (configuration not stated), for which the TGI was determined as 30 µM.
`CCOC(=O)C1(C/C=C\CBr)CCCC1=O` (configuration not stated) returned a TGI of 31.3 µM.
`Cc1[nH]n(-c2nc3c(c(=O)[nH]2)CCCC3)c(=O)c1CCO` showed a TGI above 100 µM.
Compound `Cc1cc2nc3c(C#N)c(-c4ccccc4)/c(=C\Nc4ccc(F)cc4)c(=O)n3c2cc1C` returned a TGI above 100 µM.

Another assay deals with SF-539 CNS. Briefly: growth of human tumour cells (NCI), 48 h.
`Clc1ccc(C=Nc2ccc(Oc3ccc(Cl)cc3)c(Cl)c2)cc1` came in with a TGI of 35.4 µM.
Still for that read-out and setting: as for `CCN(/C=C1/C(=O)C(c2ccccc2)N(c2ccccc2)C1=O)CC` (configuration not stated), the figure is above 10 µM; as for `C[C@H]1CC[C@@]2(OC1)O[C@H]1C[C@H]3[C@@H]4CC[C@@H]5C[C@@H](OC6OC(CO)C(O)C(O)C6OC6OC(CO)C(O)C(O)C6O)CC[C@]5(C)[C@H]4CC[C@]3(C)[C@H]1[C@@H]2C` (some centres not stated), 3.72 µM.
On the same count and under the same terms, as for `CSc1nncc(-c2cc3c(c(SC)n2)CCCC3)n1`, the figure is above 100 µM; as for `Cn1c2ccccc2c(=O)c2c(O)cc3c(c21)C1OCC(C)(O)C1O3` (configuration not stated), 56.2 µM.
Turning to `Cc1cc(N(CCC#N)CCC#N)ccc1/C(N=Nc1ccccc1)=N\NC(=O)c1cc(Cl)ccc1O`, the TGI worked out at 58.3 µM.
On to `Cn1c(CNc2ccc(-c3n[nH]c(=S)n3C)cc2)n[nH]c1=S`, for which the TGI is above 100 µM.
Same read-out and setting: as for `Cc1ccc(N=N/C(=N/NC(=O)c2ccccc2)c2ccc(N(CCC#N)CCC#N)cc2C)cc1`, the figure is 64.7 µM.
On the same count and under the same terms, as for `CC(N)(CC(O)(C(F)(F)Cl)C(F)(F)Cl)C(=O)O` (configuration not stated), the figure is above 10 µM.
Consider `COC(CN(C)C(=S)Nc1cccc2ccccc12)OC`, for which the TGI is above 10 µM.
`CCN1CCC(O)(c2ccc([N+](=O)[O-])cc2)C(C(=O)c2ccc([N+](=O)[O-])cc2)C1` (configuration not stated) displayed a TGI of 30.7 µM.
Still for that read-out and setting: as for `CCOC(=O)C1(C/C=C\CBr)CCCC1=O` (configuration not stated), the figure is 44.9 µM; as for `Cc1[nH]n(-c2nc3c(c(=O)[nH]2)CCCC3)c(=O)c1CCO`, above 100 µM; as for `Cc1cc2nc3c(C#N)c(-c4ccccc4)/c(=C\Nc4ccc(F)cc4)c(=O)n3c2cc1C`, above 100 µM.
